{"source": "paper PMC10877733", "about": "“Discovery and Characterization of VU0542270, the First Selective Inhibitor of Vascular Kir6.1/SUR2B KATP Channels” (Molecular Pharmacology, 2024)", "biological_target": "T1, Kir6.2/SUR1 (Homo sapiens, UniProt Q09428)", "T1 construct": "expressed in transfected cells; also transiently transfected HEK293T", "T1 sequence (Q09428 whole entry, species assumed)": "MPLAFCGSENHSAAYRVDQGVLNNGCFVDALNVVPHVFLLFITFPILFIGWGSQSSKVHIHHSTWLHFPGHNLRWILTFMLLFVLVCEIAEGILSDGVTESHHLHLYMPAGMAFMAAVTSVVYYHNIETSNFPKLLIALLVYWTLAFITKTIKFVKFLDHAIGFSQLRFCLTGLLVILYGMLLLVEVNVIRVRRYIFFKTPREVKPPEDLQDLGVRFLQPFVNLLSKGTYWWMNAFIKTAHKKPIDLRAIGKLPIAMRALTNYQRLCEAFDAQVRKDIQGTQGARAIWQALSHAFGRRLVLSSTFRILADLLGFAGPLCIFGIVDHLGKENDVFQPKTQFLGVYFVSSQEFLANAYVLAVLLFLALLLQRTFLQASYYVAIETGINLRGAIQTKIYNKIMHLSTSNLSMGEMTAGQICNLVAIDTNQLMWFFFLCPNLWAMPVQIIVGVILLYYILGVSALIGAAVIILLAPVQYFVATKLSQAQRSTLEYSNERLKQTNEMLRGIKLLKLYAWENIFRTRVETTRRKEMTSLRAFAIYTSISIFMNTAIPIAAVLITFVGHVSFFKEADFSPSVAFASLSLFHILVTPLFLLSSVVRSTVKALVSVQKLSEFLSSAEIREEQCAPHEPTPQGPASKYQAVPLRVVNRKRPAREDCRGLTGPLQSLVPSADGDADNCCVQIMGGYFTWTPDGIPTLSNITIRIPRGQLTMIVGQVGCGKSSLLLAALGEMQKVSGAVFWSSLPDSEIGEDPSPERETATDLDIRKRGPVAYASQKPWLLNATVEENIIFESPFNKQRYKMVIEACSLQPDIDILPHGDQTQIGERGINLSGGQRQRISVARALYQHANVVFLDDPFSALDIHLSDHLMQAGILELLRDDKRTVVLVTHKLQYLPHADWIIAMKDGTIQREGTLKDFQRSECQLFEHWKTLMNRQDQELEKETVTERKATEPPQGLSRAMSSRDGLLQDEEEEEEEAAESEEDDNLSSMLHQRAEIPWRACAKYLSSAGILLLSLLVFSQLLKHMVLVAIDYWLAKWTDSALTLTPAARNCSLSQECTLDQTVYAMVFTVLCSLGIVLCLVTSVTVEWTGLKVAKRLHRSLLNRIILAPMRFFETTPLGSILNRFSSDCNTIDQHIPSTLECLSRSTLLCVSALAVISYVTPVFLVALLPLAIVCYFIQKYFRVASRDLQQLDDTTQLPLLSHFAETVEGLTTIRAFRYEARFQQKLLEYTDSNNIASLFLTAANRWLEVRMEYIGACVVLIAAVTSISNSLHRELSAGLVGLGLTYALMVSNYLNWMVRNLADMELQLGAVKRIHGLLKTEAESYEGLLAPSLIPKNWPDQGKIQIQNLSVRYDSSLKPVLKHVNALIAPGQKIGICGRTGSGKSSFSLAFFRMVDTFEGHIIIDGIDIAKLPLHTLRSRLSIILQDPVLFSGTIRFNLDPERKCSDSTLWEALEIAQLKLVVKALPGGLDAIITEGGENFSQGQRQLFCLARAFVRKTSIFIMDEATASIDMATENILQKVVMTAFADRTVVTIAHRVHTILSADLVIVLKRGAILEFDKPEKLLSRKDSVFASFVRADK", "T1 sequence (Q14654 whole entry partner, species assumed)": "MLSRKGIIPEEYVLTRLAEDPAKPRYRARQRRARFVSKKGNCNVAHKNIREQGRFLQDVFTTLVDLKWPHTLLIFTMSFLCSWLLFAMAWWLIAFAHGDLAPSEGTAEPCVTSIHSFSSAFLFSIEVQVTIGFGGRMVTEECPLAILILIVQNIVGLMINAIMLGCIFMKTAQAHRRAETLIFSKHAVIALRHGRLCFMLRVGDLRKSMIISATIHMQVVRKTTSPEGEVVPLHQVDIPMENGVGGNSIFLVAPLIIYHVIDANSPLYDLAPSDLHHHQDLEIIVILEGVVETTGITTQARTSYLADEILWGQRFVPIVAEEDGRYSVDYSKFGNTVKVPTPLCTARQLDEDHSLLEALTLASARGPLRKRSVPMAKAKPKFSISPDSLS", "assay": "Thallium flux assay of Kir6.2/SUR1 in HEK293 cells", "type": "cell-based", "experimental": "The pcDNA3.1-SUR2B plasmid was generously provided by Dr. Colin Nichols (Washington University). The pcDNA5/TO-Kir6.1 plasmid was synthesized by GenScript. […] For selectivity assays, HEK293T cells were cotransfected with Kir6.x and SURX with Lipofectamine LTX and incubated for 48 hours before thallium flux assays.\nStable T-Rex-HEK293-Kir6.1/SUR2B cells or transiently transfected HEK293T cells were plated in polyamine-coated, clear-bottomed, black-walled 384-well plates and were cultured (37°C/5% CO2) overnight in Dulbecco’s modified Eagle’s medium (Gibco, Carlsbad, CA, 11995-065) containing 10% FBS (2 mM Penicillin-Streptomycin). The following day, cells were washed with assay buffer (i.e., Hanks’ balanced salt solution/20 mM HEPES) and loaded for 1 hour with thallium sensor dye Brilliant Thallium (Ion Bioscience, San Marcos, TX) at room temperature. Dye-loaded cells were washed with assay buffer and transferred to a Panoptic Kinetic Imaging Plate Reader (Wavefront Bioscience, Franklin, TN). Control and test compound treatments were for 4 minutes prior to adding 0.5 mM chloride-free thallium stimulus buffer (Ion Bioscience) to initiate thallium flux.", "note": "“Also recorded” adds a separate entry of the source.", "data": [{"smiles": "Cc1nc(-c2cccs2)sc1CNC(=O)Nc1cccs1", "note": "[VU0542270]", "values": [{"measurement": "activity toward Kir6.2/SUR1", "setting": "doses up to 30 µM", "value": "no apparent activity"}, {"measurement": "IC50", "setting": "thallium flux, Table 1 selectivity profile", "value": "> 30", "unit": "µM"}, {"measurement": "Kir6.2/SUR1 IC50, ATP depletion", "setting": "thallium flux, transfected HEK-293 cells, channels activated by metabolic inhibition (ATP depletion) (Fig. 4B)", "value": "failed to inhibit; also recorded: no fit"}, {"measurement": "Kir6.2/SUR1 IC50, VU0071063 activation", "setting": "thallium flux, transfected HEK-293 cells, channels activated with VU0071063 (Fig. 4A)", "value": "failed to inhibit; also recorded: no fit"}]}]}
